Test results from the kinase profiling compilation of Christmann-Franck et al. (2016).

What was measured:
Test in all cases: radiometric filter-binding kinase assay
[1] = molecular target: FLT1 (human) (UniProt P17948)
[2] = molecular target: MARK3 (human) (UniProt P27448)
[3] = molecular target: PRKCZ (human) (UniProt Q05513)
[4] = molecular target: MAP3K5 (human) (UniProt Q99683)
[5] = molecular target: GCK (human) (UniProt Q12851)
[6] = molecular target: MAPK3 (human) (UniProt P27361)
[7] = molecular target: CDK2 CCNA2 (human) (UniProt P20248+P24941)
[8] = molecular target: PRKCA (human) (UniProt P17252)
[9] = molecular target: MST4 (human) (UniProt Q9P289)
[10] = molecular target: CHEK1 (human) (UniProt O14757)
[11] = molecular target: RPS6KA3 KD1 KD2 (human) (UniProt P51812)
[12] = molecular target: DAPK1 (human) (UniProt P53355)
[13] = molecular target: PLK1 (human) (UniProt P53350)
[14] = molecular target: STK3 (human) (UniProt Q13188)
[15] = molecular target: AURKA (human) (UniProt O14965)
[16] = molecular target: NTRK1 (human) (UniProt P04629)
[17] = molecular target: HIPK3 (human) (UniProt Q9H422)
[18] = molecular target: MARK4 (human) (UniProt Q96L34)
[19] = molecular target: HIPK1 (human) (UniProt Q86Z02)
[20] = molecular target: MAP3K1 (human) (UniProt Q13233)
[21] = molecular target: TAOK1 (human) (UniProt Q7L7X3)
[22] = molecular target: EEF2K (human) (UniProt O00418)
[23] = molecular target: CLK2 (human) (UniProt P49760)
[24] = molecular target: NUAK1 (human) (UniProt O60285)
[25] = molecular target: RPS6KA1 KD1 KD2 (human) (UniProt Q15418)
[26] = molecular target: CHEK2 (human) (UniProt O96017)
[27] = molecular target: EPHB4 (human) (UniProt P54760)
[28] = molecular target: JAK2 JH1 JH2 (human) (UniProt O60674)
[29] = molecular target: MAPK1 (human) (UniProt P28482)
[30] = molecular target: ERBB4 (human) (UniProt Q15303)
[31] = molecular target: PAK6 (human) (UniProt Q9NQU5)
[32] = molecular target: BRSK2 (human) (UniProt Q8IWQ3)
[33] = tested on: SGK1 (human), O00141 [S422D]
[34] = molecular target: SRC (human) (UniProt P12931)
[35] = molecular target: RPS6KA5 KD1 KD2 (human) (UniProt O75582)

Sequence of CHEK1 (human) (O14757 whole entry, looked up): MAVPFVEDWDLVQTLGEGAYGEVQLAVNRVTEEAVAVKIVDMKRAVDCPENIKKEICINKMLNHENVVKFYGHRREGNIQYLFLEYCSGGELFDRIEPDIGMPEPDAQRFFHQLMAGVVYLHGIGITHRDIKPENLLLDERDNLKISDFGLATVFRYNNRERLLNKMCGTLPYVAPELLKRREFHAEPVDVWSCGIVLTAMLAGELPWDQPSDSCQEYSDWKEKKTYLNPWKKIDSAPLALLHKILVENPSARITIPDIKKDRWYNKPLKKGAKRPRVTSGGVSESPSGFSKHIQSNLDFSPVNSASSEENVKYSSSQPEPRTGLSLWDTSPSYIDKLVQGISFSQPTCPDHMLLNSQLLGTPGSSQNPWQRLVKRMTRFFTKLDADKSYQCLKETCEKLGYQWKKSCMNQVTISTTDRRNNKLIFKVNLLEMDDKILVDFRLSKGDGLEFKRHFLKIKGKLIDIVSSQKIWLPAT
Sequence of SRC (human) (P12931 whole entry, looked up): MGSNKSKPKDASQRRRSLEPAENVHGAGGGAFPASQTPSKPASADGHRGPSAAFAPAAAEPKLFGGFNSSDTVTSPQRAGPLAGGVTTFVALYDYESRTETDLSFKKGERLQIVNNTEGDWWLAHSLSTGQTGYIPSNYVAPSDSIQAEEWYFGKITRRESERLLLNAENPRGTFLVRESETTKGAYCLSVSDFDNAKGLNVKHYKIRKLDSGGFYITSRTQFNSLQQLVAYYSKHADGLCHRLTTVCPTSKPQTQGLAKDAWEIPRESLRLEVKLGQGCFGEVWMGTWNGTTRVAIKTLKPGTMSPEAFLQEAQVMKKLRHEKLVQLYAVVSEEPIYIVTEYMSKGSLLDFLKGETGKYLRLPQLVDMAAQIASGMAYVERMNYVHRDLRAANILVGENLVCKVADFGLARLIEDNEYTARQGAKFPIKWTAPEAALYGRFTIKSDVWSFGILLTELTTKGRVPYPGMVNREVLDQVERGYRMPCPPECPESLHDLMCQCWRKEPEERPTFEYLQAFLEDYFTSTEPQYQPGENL
Sequence of MAP3K5 (human) (Q99683 whole entry, looked up): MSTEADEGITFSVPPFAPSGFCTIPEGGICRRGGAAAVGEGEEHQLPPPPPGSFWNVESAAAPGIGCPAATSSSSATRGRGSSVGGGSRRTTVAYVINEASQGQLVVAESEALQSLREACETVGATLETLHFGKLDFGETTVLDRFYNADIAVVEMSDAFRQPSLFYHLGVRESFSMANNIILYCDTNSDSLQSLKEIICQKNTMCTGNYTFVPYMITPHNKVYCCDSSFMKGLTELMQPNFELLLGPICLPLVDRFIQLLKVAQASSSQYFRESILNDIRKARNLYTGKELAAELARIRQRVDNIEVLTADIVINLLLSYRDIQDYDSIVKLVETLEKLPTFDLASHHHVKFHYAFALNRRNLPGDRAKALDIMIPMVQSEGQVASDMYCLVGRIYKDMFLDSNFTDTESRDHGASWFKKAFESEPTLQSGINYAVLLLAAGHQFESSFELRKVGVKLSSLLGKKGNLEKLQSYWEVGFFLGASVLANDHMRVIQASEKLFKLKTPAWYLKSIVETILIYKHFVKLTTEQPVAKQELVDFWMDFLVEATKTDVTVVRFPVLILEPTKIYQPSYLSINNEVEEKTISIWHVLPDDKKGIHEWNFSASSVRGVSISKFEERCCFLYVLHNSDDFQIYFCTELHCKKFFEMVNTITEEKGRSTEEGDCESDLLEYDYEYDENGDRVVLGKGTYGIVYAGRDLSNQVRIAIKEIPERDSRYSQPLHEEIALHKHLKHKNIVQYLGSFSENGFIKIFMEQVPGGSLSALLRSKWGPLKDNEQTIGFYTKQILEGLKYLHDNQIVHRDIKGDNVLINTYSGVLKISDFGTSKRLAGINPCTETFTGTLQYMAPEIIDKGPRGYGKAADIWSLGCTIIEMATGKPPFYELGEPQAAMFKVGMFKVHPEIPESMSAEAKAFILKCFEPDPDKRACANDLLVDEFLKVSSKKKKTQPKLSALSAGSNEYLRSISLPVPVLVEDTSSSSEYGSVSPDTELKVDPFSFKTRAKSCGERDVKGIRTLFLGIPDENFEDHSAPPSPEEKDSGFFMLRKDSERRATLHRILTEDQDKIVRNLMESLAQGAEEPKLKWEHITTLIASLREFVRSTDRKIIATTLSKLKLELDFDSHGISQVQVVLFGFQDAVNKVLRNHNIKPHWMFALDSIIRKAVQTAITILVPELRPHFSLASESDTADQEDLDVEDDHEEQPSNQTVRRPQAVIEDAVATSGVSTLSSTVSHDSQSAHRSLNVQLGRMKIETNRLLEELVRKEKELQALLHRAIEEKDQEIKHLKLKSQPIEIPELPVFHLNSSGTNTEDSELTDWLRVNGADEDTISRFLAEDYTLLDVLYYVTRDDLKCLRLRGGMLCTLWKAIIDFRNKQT
Sequence of TAOK1 (human) (Q7L7X3 whole entry, looked up): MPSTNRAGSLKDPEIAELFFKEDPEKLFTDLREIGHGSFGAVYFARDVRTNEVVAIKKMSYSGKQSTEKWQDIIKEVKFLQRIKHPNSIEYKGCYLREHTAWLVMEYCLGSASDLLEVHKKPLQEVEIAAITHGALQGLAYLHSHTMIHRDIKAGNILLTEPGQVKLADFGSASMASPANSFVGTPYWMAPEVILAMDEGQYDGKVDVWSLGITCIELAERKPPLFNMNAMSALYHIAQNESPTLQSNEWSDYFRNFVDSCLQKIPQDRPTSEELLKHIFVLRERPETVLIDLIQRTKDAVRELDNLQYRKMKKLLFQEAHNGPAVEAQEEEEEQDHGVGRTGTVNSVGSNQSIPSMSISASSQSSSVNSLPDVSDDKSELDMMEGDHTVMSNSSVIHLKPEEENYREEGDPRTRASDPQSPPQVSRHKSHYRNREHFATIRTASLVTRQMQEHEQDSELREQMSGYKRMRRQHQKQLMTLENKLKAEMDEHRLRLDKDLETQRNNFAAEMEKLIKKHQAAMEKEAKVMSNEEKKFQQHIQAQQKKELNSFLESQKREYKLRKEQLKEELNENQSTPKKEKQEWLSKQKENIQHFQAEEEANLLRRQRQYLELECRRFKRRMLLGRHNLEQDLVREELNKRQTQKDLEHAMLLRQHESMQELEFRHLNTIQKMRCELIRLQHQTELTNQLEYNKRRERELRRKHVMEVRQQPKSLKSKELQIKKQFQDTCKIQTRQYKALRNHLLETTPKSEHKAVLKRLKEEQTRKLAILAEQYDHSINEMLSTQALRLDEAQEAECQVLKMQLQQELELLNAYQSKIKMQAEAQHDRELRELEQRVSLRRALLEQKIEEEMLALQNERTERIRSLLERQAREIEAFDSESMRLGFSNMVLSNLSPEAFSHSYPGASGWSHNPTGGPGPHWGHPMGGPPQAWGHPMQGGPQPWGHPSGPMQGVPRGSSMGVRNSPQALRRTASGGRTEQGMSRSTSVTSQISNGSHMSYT
Sequence of RPS6KA3 KD1 KD2 (human) (P51812 whole entry, looked up): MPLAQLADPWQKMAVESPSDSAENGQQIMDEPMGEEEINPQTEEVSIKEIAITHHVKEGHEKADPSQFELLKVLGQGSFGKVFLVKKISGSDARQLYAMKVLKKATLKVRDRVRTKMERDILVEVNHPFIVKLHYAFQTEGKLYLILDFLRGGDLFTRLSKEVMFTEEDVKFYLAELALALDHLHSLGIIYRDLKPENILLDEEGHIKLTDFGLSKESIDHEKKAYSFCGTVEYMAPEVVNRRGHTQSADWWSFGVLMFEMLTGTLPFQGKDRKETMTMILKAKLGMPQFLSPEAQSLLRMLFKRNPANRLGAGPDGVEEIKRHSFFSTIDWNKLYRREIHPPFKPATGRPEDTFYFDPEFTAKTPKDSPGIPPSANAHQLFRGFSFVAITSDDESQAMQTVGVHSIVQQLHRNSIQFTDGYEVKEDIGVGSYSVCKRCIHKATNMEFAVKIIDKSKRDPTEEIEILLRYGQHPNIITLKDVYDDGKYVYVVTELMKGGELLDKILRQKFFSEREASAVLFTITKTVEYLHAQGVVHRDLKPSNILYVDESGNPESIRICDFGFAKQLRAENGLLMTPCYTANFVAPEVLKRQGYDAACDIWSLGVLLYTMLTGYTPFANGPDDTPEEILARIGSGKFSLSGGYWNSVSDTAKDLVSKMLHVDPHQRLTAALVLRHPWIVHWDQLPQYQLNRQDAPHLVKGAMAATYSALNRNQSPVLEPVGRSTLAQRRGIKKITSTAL
Sequence of PRKCZ (human) (Q05513 whole entry, looked up): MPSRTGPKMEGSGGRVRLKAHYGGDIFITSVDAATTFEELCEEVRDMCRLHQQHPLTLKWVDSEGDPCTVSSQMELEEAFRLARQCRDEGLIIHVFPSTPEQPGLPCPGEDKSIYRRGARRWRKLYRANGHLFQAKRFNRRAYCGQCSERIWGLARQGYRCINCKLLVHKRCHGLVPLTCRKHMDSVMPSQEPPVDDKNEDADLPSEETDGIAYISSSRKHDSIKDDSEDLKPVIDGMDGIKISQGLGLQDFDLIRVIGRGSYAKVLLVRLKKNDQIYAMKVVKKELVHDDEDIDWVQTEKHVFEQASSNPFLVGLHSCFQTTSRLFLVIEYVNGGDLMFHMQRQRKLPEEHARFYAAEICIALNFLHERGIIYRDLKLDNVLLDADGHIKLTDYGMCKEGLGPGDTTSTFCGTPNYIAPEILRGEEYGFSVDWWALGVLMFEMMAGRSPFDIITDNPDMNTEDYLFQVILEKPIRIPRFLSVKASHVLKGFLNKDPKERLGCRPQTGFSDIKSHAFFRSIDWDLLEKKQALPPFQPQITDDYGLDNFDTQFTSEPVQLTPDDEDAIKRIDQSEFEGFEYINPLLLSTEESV

Structure (SMILES): O=C(N[C@@H](COc1ccc2[nH]c(=O)[nH]c2c1)c1ccccc1)c1cccn(Cc2ccc(F)c(F)c2)c1=O
- residual activity ([1]; compound 0.1 µM): 106%
- residual activity ([1]; compound 1.0 µM): 100%
- residual activity ([2]; compound 0.1 µM): 99%
- residual activity ([2]; compound 1.0 µM): 93%
- residual activity ([2]; compound 10.0 µM): 83%
- residual activity ([3]; compound 0.1 µM): 104%
- residual activity ([3]; compound 1.0 µM): 106%
- residual activity ([3]; compound 10.0 µM): 88%
- residual activity ([4]; compound 0.1 µM): 110%
- residual activity ([4]; compound 1.0 µM): 105%
- residual activity ([4]; compound 10.0 µM): 92%
- residual activity ([5]; compound 0.1 µM): 102%
- residual activity ([5]; compound 1.0 µM): 101%
- residual activity ([5]; compound 10.0 µM): 94%
- residual activity ([6]; compound 0.1 µM): 93%
- residual activity ([6]; compound 1.0 µM): 101%
- residual activity ([6]; compound 10.0 µM): 95%
- residual activity ([7]; compound 0.1 µM): 90%
- residual activity ([7]; compound 1.0 µM): 91%
- residual activity ([7]; compound 10.0 µM): 95%
- residual activity ([8]; compound 0.1 µM): 99%
- residual activity ([8]; compound 1.0 µM): 91%
- residual activity ([8]; compound 10.0 µM): 96%
- residual activity ([9]; compound 0.1 µM): 101%
- residual activity ([9]; compound 1.0 µM): 117%
- residual activity ([9]; compound 10.0 µM): 86%
- residual activity ([10]; compound 0.1 µM): 96%
- residual activity ([10]; compound 1.0 µM): 94%
- residual activity ([10]; compound 10.0 µM): 95%
- residual activity ([11]; compound 0.1 µM): 102%
- residual activity ([11]; compound 1.0 µM): 98%
- residual activity ([11]; compound 10.0 µM): 85%
- residual activity ([12]; compound 0.1 µM): 106%
- residual activity ([12]; compound 1.0 µM): 113%
- residual activity ([12]; compound 10.0 µM): 91%
- residual activity ([13]; compound 0.1 µM): 118%
- residual activity ([13]; compound 1.0 µM): 107%
- residual activity ([13]; compound 10.0 µM): 121%
- residual activity ([14]; compound 0.1 µM): 102%
- residual activity ([14]; compound 1.0 µM): 105%
- residual activity ([14]; compound 10.0 µM): 100%
- residual activity ([15]; compound 0.1 µM): 110%
- residual activity ([15]; compound 1.0 µM): 110%
- residual activity ([15]; compound 10.0 µM): 103%
- residual activity ([16]; compound 0.1 µM): 113%
- residual activity ([16]; compound 1.0 µM): 98%
- residual activity ([16]; compound 10.0 µM): 78%
- residual activity ([17]; compound 0.1 µM): 99%
- residual activity ([17]; compound 1.0 µM): 108%
- residual activity ([17]; compound 10.0 µM): 91%
- residual activity ([18]; compound 0.1 µM): 150%
- residual activity ([18]; compound 1.0 µM): 143%
- residual activity ([18]; compound 10.0 µM): 83%
- residual activity ([19]; compound 0.1 µM): 99%
- residual activity ([19]; compound 1.0 µM): 100%
- residual activity ([19]; compound 10.0 µM): 86%
- residual activity ([20]; compound 0.1 µM): 110%
- residual activity ([20]; compound 1.0 µM): 114%
- residual activity ([20]; compound 10.0 µM): 112%
- residual activity ([21]; compound 0.1 µM): 111%
- residual activity ([21]; compound 1.0 µM): 126%
- residual activity ([21]; compound 10.0 µM): 119%
- residual activity ([22]; compound 0.1 µM): 95%
- residual activity ([22]; compound 1.0 µM): 103%
- residual activity ([22]; compound 10.0 µM): 107%
- residual activity ([23]; compound 0.1 µM): 106%
- residual activity ([23]; compound 1.0 µM): 95%
- residual activity ([23]; compound 10.0 µM): 74%
- residual activity ([24]; compound 0.1 µM): 115%
- residual activity ([24]; compound 1.0 µM): 107%
- residual activity ([24]; compound 10.0 µM): 98%
- residual activity ([25]; compound 0.1 µM): 95%
- residual activity ([25]; compound 1.0 µM): 93%
- residual activity ([25]; compound 10.0 µM): 114%
- residual activity ([26]; compound 0.1 µM): 102%
- residual activity ([26]; compound 1.0 µM): 106%
- residual activity ([26]; compound 10.0 µM): 100%
- residual activity ([27]; compound 1.0 µM): 85%
- residual activity ([27]; compound 10.0 µM): 87%
- residual activity ([28]; compound 0.1 µM): 98%
- residual activity ([28]; compound 1.0 µM): 99%
- residual activity ([28]; compound 10.0 µM): 101%
- residual activity ([29]; compound 0.1 µM): 102%
- residual activity ([29]; compound 1.0 µM): 100%
- residual activity ([29]; compound 10.0 µM): 101%
- residual activity ([30]; compound 0.1 µM): 102%
- residual activity ([30]; compound 1.0 µM): 100%
- residual activity ([30]; compound 10.0 µM): 98%
- residual activity ([31]; compound 0.1 µM): 102%
- residual activity ([31]; compound 1.0 µM): 102%
- residual activity ([31]; compound 10.0 µM): 89%
- residual activity ([32]; compound 0.1 µM): 118%
- residual activity ([32]; compound 1.0 µM): 90%
- residual activity ([32]; compound 10.0 µM): 79%
- residual activity ([33]; compound 0.1 µM): 106%
- residual activity ([33]; compound 1.0 µM): 102%
- residual activity ([33]; compound 10.0 µM): 102%
- residual activity ([34]; compound 0.1 µM): 103%
- residual activity ([34]; compound 1.0 µM): 100%
- residual activity ([34]; compound 10.0 µM): 75%
- residual activity ([35]; compound 0.1 µM): 101%
- residual activity ([35]; compound 1.0 µM): 104%
- residual activity ([35]; compound 10.0 µM): 106%
